Measured values as given in patent US11118211B2, “Methods for the design of mechanism-based sirtuin activating compounds” (CHAKRABARTI ADVANCED TECHNOLOGY LLC, priority 2015, dated 2021).
Converted amounts (≈) assume the structure as drawn. Like-named read-outs stand apart in the source and are kept apart here. Values belong to the compound of their own block, whether it stands above or below them.

Experiments:
recombinant human SIRT3 = biological target: T1, recombinant human SIRT3 (Homo sapiens, UniProt Q9NTG7); test: High-throughput fluorimetric initial rate / endpoint assay of SIRT3 deacetylation with fluorolabeled p53 peptide; type: biochemical
T1 construct: purchased Enzo Life Sciences AK 557
T1 sequence (Q9NTG7 1-399): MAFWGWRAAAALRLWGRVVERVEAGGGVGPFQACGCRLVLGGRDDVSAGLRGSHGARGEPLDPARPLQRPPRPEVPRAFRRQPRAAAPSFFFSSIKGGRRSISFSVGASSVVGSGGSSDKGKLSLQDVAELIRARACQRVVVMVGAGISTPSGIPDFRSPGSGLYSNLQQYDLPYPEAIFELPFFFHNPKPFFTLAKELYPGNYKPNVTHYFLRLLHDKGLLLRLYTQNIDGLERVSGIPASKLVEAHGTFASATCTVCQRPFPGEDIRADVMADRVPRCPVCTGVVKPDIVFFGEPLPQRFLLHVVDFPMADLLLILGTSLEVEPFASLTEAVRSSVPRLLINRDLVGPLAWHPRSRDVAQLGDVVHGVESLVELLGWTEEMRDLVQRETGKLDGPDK
Procedure: The specified concentration of the test compound was chosen to be 50 uM. Initial deacylation rates at DHP-1's were measured at varying [NAD+] and [NAM] according to the following methods.
The steady state parameters (Km and kcat) and catalytic efficiency (kcat/Km) of deacetylase activity of recombinant human SIRT3 were determined using a fluorimetric assay. The deacetylation activities were measured by using the SIRT3 Fluorimetic Drug Discovery Kit (AK 557, Enzo Life Sciences). This assay system allows detection of a fluorescent signal upon deacetylation of an acetylated substrate peptide, comprising amino acids 317-320 of human p53 (Gln-Pro-Lys-LysAc) for SIRT3, when treated with developer. The intensity of fluorescence was measured on a fluorometric microplate reader (Fluoroskan AscentH FL, Thermo Lab Systems) with excitation set at 355 nm and emission detection set at 460 nm. The initial rate of the NAD^+-dependent deacetylation activity of SIRT3 enzyme was measured at different concentrations of NAD^+. The reactions were carried out at 37° C. in a 50 μl reaction volume containing 50 mM Tris/Cl (pH=8), 137 mM NaCl, and 250 uM fluorolabeled peptide substrate. Reactions carried out in the presence of DHP-1 included 5% DMSO. The raw data were fitted to the Michaelis-Menten equation and defined inhibition models by using GraphPad Prism (GraphPad Software, Inc, CA) to obtain the kinetic constants. […] In assays of allosteric modulators, artifacts reported in the presence of the fluorescent label were later shown to occur due to the hydrophobic fluorophore participating in the modulator's allosteric activation mechanism.
This assay was used to measure the potency of modulation of SIRT3 by DHP-1 in a high-throughput endpoint format. All reagents are diluted on ice in the following reaction buffer: 50 mM Tris/Cl, pH 8.0, 137 mM NaCl, 2.7 mM KCl, 1 mM MgCl2, and 1 mg/mL BSA. Thus for each reaction well, 5U of SIRT3 enzyme is added to 500 μM NAD^+, 250 μM fluorolabeled peptide substrate, and DHP-1 at a given concentration (0-100 uM) in a total reaction volume of 50 μL. After an hour incubation at 37° C., the reaction is stopped upon addition of 1× Developer for a final reaction volume of 100 μL. The reaction is incubated at 37° C. for an additional 15 min and then read on the plate reader. Positive controls contained only enzyme, substrate, NAD^+, and DMSO while background controls contained substrate, NAD^+, and DMSO only.

[1] = Thermodynamic solubility measurement by HPLC in HDAC buffer / DMSO; type: physicochemical; details: for thermodynamic solubility (in words): solubility protocol of b230; for solubility at 48 h: 24.5 °C, thermodynamic from solid, ambient (24-25° C.)
Procedure: DHP-1 in up to 20% DMSO/HDAC was insoluble. In brief, HPLC (Agilent 1100 series) was used to perform the test. Calibration curves were established using concentration range covering the estimated solubility's. The samples were then analyzed by a well-calibrated HPLC method. The linearity was measured by R-values at least >0.99. The estimated detection limit was around 0.002 mg/mL (2 μg/mL) based on acceptable N/S ratio. Over saturated samples were prepared by dosing excess compounds into the solvent mixtures of interest. The samples were equilibrated at ambient (24-25° C.) for 48 hours and then analyzed by the same HPLC method.

Human Sirt3 protein [2] = biological target: T2, Human Sirt3 protein (Homo sapiens, UniProt Q9NTG7); test: Label-free HPLC endpoint assay of Sirt3 deacetylation activity (DHP-1, DHP-2; FdL/p53 peptide); type: biochemical; details: for % product formation / % Sirt3 Activity: 50 uM DHP-1 in 5% DMSO; for % Sirt3 Activity: control = 100.0
T2 construct: hexa-histidine (N); host or cells: E. coli Arctic Express (DE3)
T2 sequence (Q9NTG7 102-399): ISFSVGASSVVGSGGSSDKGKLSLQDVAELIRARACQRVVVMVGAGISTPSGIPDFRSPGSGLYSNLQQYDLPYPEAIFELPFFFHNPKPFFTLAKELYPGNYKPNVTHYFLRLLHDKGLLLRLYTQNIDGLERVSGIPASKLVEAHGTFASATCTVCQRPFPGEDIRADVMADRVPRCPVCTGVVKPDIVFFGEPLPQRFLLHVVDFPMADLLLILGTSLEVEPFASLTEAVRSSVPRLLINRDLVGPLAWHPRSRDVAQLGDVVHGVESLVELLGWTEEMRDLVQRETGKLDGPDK
Procedure: Reactions for DHP-1 used a similar protocol, but were carried out at a single concentration of modulator and varying concentrations of NAD+ and fluorolabeled peptide at 37° C. in a 50 μl reaction volume containing 50 mM Tris/Cl (pH=8), 137 mM NaCl, and 5% DMSO. [DHP] was 50 uM.

Human Sirt3 protein [3] = biological target: T2, Human Sirt3 protein; test: Binding analysis by microscale thermophoresis (MST); details: 5% DMSO, 25° C.
Procedure: Human Sirt3 protein was labeled with Alexa647 fluorophore by NHS ester chemistry in 20 mM HEPES, 200 mM NaCl, 0.5 mM TCEP at pH 7.5. A 2:1 molar excess of reactive dye was used over protein, in order to preferentially label one lysine within the protein. Free dye was removed using a size exclusion column and the labeled protein (Sirt3 NT647) was buffer exchanged into 50 mM Tris-HCl pH 8.0, 137 mM NaCl, 2.7 mM KCl, 1 mM MgCl2, 5% DMSO, 0.05% Pluronic F-127. A final concentration of 2 nM Sirt3 NT647 was titrated with varying concentrations of the modulator and thermophoresis was measured (excitation wavelength 650 nm, emission wavelength 670 nm, LED-power 15%, laser-power 80%) using a Monolith NT. 115 Pico (NanoTemper Technologies) at 25° C. in the absence and presence of various concentrations of NAD+, acetylated and de-acetylated peptide (K122-MnSOD peptide). Dissociation constants were determined with GraFit7 (Erithacus Software) by nonlinear fitting using a 1:1 binding model. Each experiment was repeated at least twice.

Sir2Af2 = biological target: T3, Sir2Af2 (Archaeoglobus fulgidus, UniProt O30124); details: cited from earlier work
T3 sequence (O30124 1-253): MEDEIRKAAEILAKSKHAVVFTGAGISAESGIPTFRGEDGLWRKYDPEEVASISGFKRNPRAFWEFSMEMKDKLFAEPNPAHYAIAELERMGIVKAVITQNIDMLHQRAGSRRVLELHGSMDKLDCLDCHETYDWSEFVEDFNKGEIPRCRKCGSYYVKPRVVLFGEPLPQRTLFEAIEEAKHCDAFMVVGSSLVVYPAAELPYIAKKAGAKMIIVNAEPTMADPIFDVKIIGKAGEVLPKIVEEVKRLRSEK

[4] = 100 uM NAD + 100 uM FdL Peptide
[5] = 200 uM NAD + 100 uM FdL Peptide
[6] = 500 uM NAD + 250 uM FdL Peptide
[7] = 2% DMSO in HDAC buffer, aqueous buffer, 2% DMSO/HDAC
[8] = 5% DMSO in HDAC buffer, aqueous with cosolvent or surfactant or cyclodextrin, 5% DMSO/HDAC

SMILES: C=CCc1ccc(O)c(-c2ccc(O)c(CC=C)c2)c1 [Honokiol, 5,3′-Diallyl-2,4′-dihydroxybiphenyl, reference compound]
solubility at 48 h [1, 7]: 41 µg/mL (≈ 0.154 mM)
solubility at 48 h [1, 8]: 120 µg/mL (≈ 0.451 mM)
Kd (Human Sirt3 protein [3]; read-out: Kd, binding to SIRT3 apoenzyme): 1010 ± 129 nM
Kd (Human Sirt3 protein [3]; read-out: Kd, binding to the enzyme:NAD+ complex): 1670 ± 125 nM

SMILES: NC(=O)c1cccnc1 [NAM, nicotinamide]
ΔGbind,NAM (Sir2Af2): -4.1 kcal/mol

SMILES: NC(=O)c1ccncc1 [isonicotinamide, reference compound]
outcome of hit identification (recombinant human SIRT3; same sirtuin enzyme and peptide substrate, competitive inhibitor of base exchange): screened out

More lines, main results first:

Alpha (apparent, best-fit value) (recombinant human SIRT3; 50 uM DHP-1, global fit of mixed inhibition model, varying NAD+ and NAM): 1.933
Vmax (apparent, best-fit value) (recombinant human SIRT3; 50 uM DHP-1, global fit of mixed inhibition model, varying NAD+ and NAM, 250 uM fluorolabeled peptide): 0.2118
net effect on catalytic turnover (vapp versus v) (recombinant human SIRT3; fluorimetric assays): vapp>v
thermodynamic solubility (in words) [1]: thermodynamically insoluble
Solubility ([1]; up to 20% DMSO/HDAC): insoluble
SIRT3 activation in label-free assay (Human Sirt3 protein [2]; 50 uM DHP-1, conditions of Table 2, threshold vapp/v=1.10): does not activate SIRT3
% product formation (Human Sirt3 protein [2]; [4]): 5.776%
% Sirt3 Activity (Human Sirt3 protein [2]; [4]): 96.7%
% product formation (Human Sirt3 protein [2]; [5]): 9.463%
% Sirt3 Activity (Human Sirt3 protein [2]; [5]): 92.3%
% product formation (Human Sirt3 protein [2]; [6]): 2.111%
% Sirt3 Activity (Human Sirt3 protein [2]; [6]): 99.5%
SMILES: CCOC(=O)C1=CN(Cc2ccccc2)C=C(C(=O)OCC)C1c1ccccc1 [DHP-1, N-Benzyl-3,5-dicarbethoxy-4-phenyl-1,4-dihydropyridine]

solubility at 48 h [1, 7]: 1740 µg/mL (≈ 5.2 mM)
solubility at 48 h [1, 8]: 2140 µg/mL (≈ 6.38 mM)
solubility at 48 h ([1]; 10% DMSO in HDAC buffer, aqueous with cosolvent or surfactant or cyclodextrin, 10% DMSO/HDAC): 2200 µg/mL (≈ 6.55 mM)
solubility at 48 h ([1]; aqueous buffer, 100% HDAC buffer): 2300 µg/mL (≈ 6.87 mM)
thermodynamic solubility (in words) [1]: thermodynamically soluble
SIRT3 activation in label-free assay (Human Sirt3 protein [2]; 3 μM NAD+ and 250 μM peptide substrate, 0-400 μM DHP-2, threshold vapp/v=1.10): does not activate SIRT3
SMILES: O=C(O)C1=CN(Cc2ccccc2)C=C(C(=O)O)C1c1ccccc1 [DHP-2, N-Benzyl-3,5-dicarboxy-4-phenyl-1,4-dihydropyridine]
rate enhancement versus predicted for Km,NAD+ reduction (x = 0.7, 0.8, 0.9) (Human Sirt3 protein [2]; any concentration tested, label-free assay (FIG. 8 vs FIG. 10)): does not induce a rate enhancement exceeding those predicted
